Drawing on ChEMBL document CHEMBL1122587 (J Med Chem, 1984), this text covers logP and logD for ten molecules.

Numbered stars: 1 amine (or outer) side, 2 acyl side, 3 side chain; on linkers, the order of the positions; unused ones are H or OH. Bridge positions count the residues as written; N and C are the ends. Square brackets hold non-standard residues; d marks the D form. Peptide text beside a SMILES is read from it. I, II: the chains in the order shown. Actinocin(9to1) = Cc1c2oc3c(C)ccc(C(=O)[*:1])c3nc-2c(C(=O)[*:2])c(N)c1=O; NMeV = CN[C@H](C(=O)O)C(C)C; Sar = CNCC(=O)O

Holding throughout (type): physicochemical
The nature of data set [1]: Partition coefficient (logP). Conditions: octanol/water.
Data set [2] in a line: log P value was reported at a pH 2.0. To be noted: buffer.
Data set [3] in a line: Partition coefficient (logD) (0.1 N NaOH).

On to `Cc1c2oc3c(C)ccc(C(=O)N[C@@H]4C(=O)N[C@H](C(C)C)C(=O)N5CCC[C@H]5C(=O)N(C)CC(=O)N(C)[C@@H](C(C)C)C(=O)O[C@@H]4C)c3nc-2c(C(=O)N[C@@H]2C(=O)N[C@H](C(C)C)C(=O)N3CCC[C@H]3C(=O)N(C)CC(=O)N(C)[C@@H](C(C)C)C(=O)O[C@@H]2C)c(N)c1=O` [DACTINOMYCIN] (I: T[dV]P[Sar][NMeV] / II: T[dV]P[Sar][NMeV]; ester I:1-I:C, II:1-II:C; linker I:N-II:N via Actinocin(9to1)), for which the log partition coefficient (logP) (commonly a log measure of how a compound divides between an organic and an aqueous phase) in data set [1] (read-out: logP) came to 3.21.

Consider `COc1cccc2c1C(=O)c1c(O)c3c(c(O)c1C2=O)C[C@@](O)(C(C)=O)C[C@@H]3O[C@H]1C[C@H](N)[C@H](O)[C@H](C)O1` [DAUNORUBICIN], for which, in data set [1] (read-out: logP), the logP was 0.66.

With `COc1cccc2c1C(=O)c1c(O)c3c(c(O)c1C2=O)C[C@@](O)(C(=O)CO)C[C@@H]3O[C@H]1C[C@H](N)[C@H](O)[C@H](C)O1` [DOXORUBICIN], the log partition coefficient (logP) in data set [1] (read-out: logP) is 0.1.

On to `NC(=O)NO` [HYDROXYUREA], for which, in data set [1] (read-out: logP), the logP was -1.8.

Turning to `CN(Cc1cnc2nc(N)nc(N)c2n1)c1ccc(C(=O)N[C@@H](CCC(=O)O)C(=O)O)cc1` [METHOTREXATE], the logD (commonly the decadic logarithm of the distribution of all forms, ionised or not, between an organic phase and buffer at a given pH) in data set [2] was -2.59.

Take `CO[C@@]12[C@H](COC(N)=O)C3=C(C(=O)C(C)=C(N)C3=O)N1C[C@@H]1N[C@@H]12` [MITOMYCIN]: the log partition coefficient (logP) in data set [1] is -0.47.

In the case of `COc1ccc(OC)c(Cc2cnc3nc(N)nc(N)c3c2C)c1` [PIRITREXIM], the pH-dependent lipophilicity (logD) in data set [3] (0.1 N NaOH, read-out: logD) was determined as 2.13.

In the case of `COc1ccc(C[C@H](N)C(=O)N[C@H]2[C@@H](O)[C@H](n3cnc4c(N(C)C)ncnc43)O[C@@H]2CO)cc1` [PUROMYCIN], in data set [1] (read-out: logP), the log partition coefficient (logP) was 0.03.

In data set [3] (octanol/water), `COCCOc1c(OC)cc(Cc2cnc(N)nc2N)cc1OC` [TETROXOPRIM] yielded a log distribution coefficient (logD) of 0.6.

CISPLATIN showed a logP in data set [1] of -1.45.
